Results published in BindingDB's records for doi:10.1007/s10822-022-00478-x (Roche Innovation Center Basel, F. Hoffmann-La Roche Ltd., 2022).

Molecular target: cAMP and cAMP-inhibited cGMP 3',5'-cyclic phosphodiesterase 10A (Homo sapiens, UniProt Q9Y233)
Assay: PDE10A assay
Procedure, shortened: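 Human PDE10A (2 ng/well) preincubated 15 min RT with compound in HEPES pH 7.5, 10 mM MgCl2, BSA, then reacted 15 min with 50 nM [3H]cGMP/cGMP substrate. Stopped with Y-Si SPA beads; bound radioactivity counted, IC50 from four-parameter logistic, pIC50 = −log10(IC50).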

Row | SMILES | IC50
1 | O=C(NC1CCOCC1)c1nc(C2CC2)cnc1Nc1cncnc1 [Roche-Dataset for PDE10A, Compound 1059] | 1790 nM
2 | CS(=O)(=O)CCNC(=O)c1nc(C2CC2)cnc1Nc1cncnc1 [Roche-Dataset for PDE10A, Compound 1061] | 1630 nM
3 | CN(C(=O)c1c(C(=O)N2CCC2)cnn1C)c1ccn2nc(-c3ccccc3)nc2c1 [Roche-Dataset for PDE10A, Compound 1062] | 1450 nM
4 | Cc1cc(NC(=O)c2c(C(=O)N3CCC3)cnn2C)nn1C1CCCC1 [Roche-Dataset for PDE10A, Compound 1063] | 437 nM
5 | Cc1ncc(C)n2nc(/C=C/c3nc(N4C[C@@H]5C[C@H]6CN(C(=O)OC(C)(C)C)C[C@]65C4)nn3C)nc12 [Roche-Dataset for PDE10A, Compound 1066] | 6130 nM
6 | CC(C)CNC(=O)c1c(NC(=O)c2c(C(=O)N3CCC3)cnn2C)cnn1C [Roche-Dataset for PDE10A, Compound 1069] | 462 nM
7 | CC(C)c1cc(NC(=O)c2c(C(=O)N3CCC3)cnn2C)[nH]n1 [Roche-Dataset for PDE10A, Compound 1070] | 10000 nM
8 | CS(=O)(=O)N1CCC(NC(=O)c2nc(C3CC3)cnc2Nc2cncnc2)CC1 [Roche-Dataset for PDE10A, Compound 1072] | 2860 nM
9 | O=C(NC1(c2ccc(Cl)cc2)CCC1)c1nc(C2CC2)cnc1Nc1cncnc1 [Roche-Dataset for PDE10A, Compound 1074] | 863 nM
10 | CCNC(=O)c1c(NC(=O)c2c(C(=O)N3CCC3)cnn2C)cnn1CC [Roche-Dataset for PDE10A, Compound 1076] | 1920 nM
11 | Cn1ncc(C(=O)N2CCC2)c1C(=O)Nc1cc(C2CCC2)n[nH]1 [Roche-Dataset for PDE10A, Compound 1078] | 10000 nM
12 | Cn1ncc(C(=O)N2CCC2)c1C(=O)Nc1ccn(CCF)n1 [Roche-Dataset for PDE10A, Compound 1082] | 551 nM
13 | O=C(NCc1ncco1)c1nc(C2CC2)cnc1Nc1cncnc1 [Roche-Dataset for PDE10A, Compound 1086] | 1030 nM
14 | Cn1ncc(C(=O)N2CCC2)c1C(=O)Nc1cc(C2CCC2)n(C2CCCC2)n1 [Roche-Dataset for PDE10A, Compound 1088] | 853 nM
15 | O=C(NCc1cocn1)c1nc(C2CC2)cnc1Nc1cncnc1 [Roche-Dataset for PDE10A, Compound 1089] | 1860 nM
16 | CC1(CNC(=O)c2nc(C3CC3)cnc2Nc2cncnc2)COC1 [Roche-Dataset for PDE10A, Compound 1092] | 2980 nM
17 | Cn1ncc(C(=O)N2CCC2)c1C(=O)Nc1ccn(C2CCC2)n1 [Roche-Dataset for PDE10A, Compound 1093] | 496 nM
18 | Cn1ncc(C(=O)N2CCC2)c1C(=O)Nc1ccn(-c2ccccn2)n1 [Roche-Dataset for PDE10A, Compound 1095] | 785 nM
19 | O=C(c1nc(C2CC2)cnc1Nc1cncnc1)N1CCC(N2CCOCC2)CC1 [Roche-Dataset for PDE10A, Compound 1098] | 10000 nM
20 | CNC(=O)c1c(NC(=O)c2nc(C)c(C)nc2Nc2cncnc2)cnn1C [Roche-Dataset for PDE10A, Compound 1099] | 7810 nM
21 | Cn1ncc(C(=O)N2CCC2)c1C(=O)Nc1ccn(C(F)F)n1 [Roche-Dataset for PDE10A, Compound 1100] | 761 nM
22 | Cn1ncc(C(=O)N2CCC2)c1C(=O)Nc1cc(C2CCCCC2)n(C2CCCC2)n1 [Roche-Dataset for PDE10A, Compound 1101] | 783 nM
23 | O=C(c1ccccc1)N1CCN(C(=O)c2nc(C3CC3)cnc2Nc2cncnc2)CC1 [Roche-Dataset for PDE10A, Compound 1104] | 10000 nM
24 | Cn1ncc(C(=O)N2CCC2)c1C(=O)Nc1ccn(C(C)(C)C)n1 [Roche-Dataset for PDE10A, Compound 1109] | 672 nM
25 | COc1ccc2c(=O)n(C)c3c(C)nc(C)n3c2c1 [Roche-Dataset for PDE10A, Compound 1111] | 2520 nM
26 | Cn1ncc(C(=O)N2CCC2)c1C(=O)Nc1ccn(CCC#N)n1 [Roche-Dataset for PDE10A, Compound 1114] | 3150 nM
27 | CCOC(=O)c1cnn(C)c1C(=O)Nc1ccc2nc(N3CCOCC3)nn2c1 [Roche-Dataset for PDE10A, Compound 1117] | 1990 nM
28 | CC(C)n1ccc(NC(=O)c2c(C(=O)N3CCC3)cnn2C)n1 [Roche-Dataset for PDE10A, Compound 1118] | 1830 nM
29 | CCNC(=O)c1c(NC(=O)c2c(C(=O)N3CCC3)cnn2C)cnn1C [Roche-Dataset for PDE10A, Compound 1120] | 3130 nM
30 | CCn1ccc(NC(=O)c2c(C(=O)N3CCC3)cnn2C)n1 [Roche-Dataset for PDE10A, Compound 1121] | 1320 nM

Molecules with a lower IC50, results first:

Row | IC50 | SMILES
31 | 242 nM | Cn1ncc(C(=O)N2CCC2)c1C(=O)Nc1ccn(C2CCCCC2)n1 [Roche-Dataset for PDE10A, Compound 1064]
32 | 327 nM | COCCn1ccc(NC(=O)c2c(C(=O)N3CCC3)cnn2C)n1 [Roche-Dataset for PDE10A, Compound 1067]
33 | 207 nM | Cc1cc(NC(=O)c2c(C(=O)N3CCC3)cnn2C)cc(NC(=O)OC(C)(C)C)n1 [Roche-Dataset for PDE10A, Compound 1068]
34 | 27 nM | CS(=O)(=O)c1ccccc1NC(=O)c1nc(C2CC2)ccc1Nc1cncnc1 [Roche-Dataset for PDE10A, Compound 1071]
35 | 276 nM | Cc1cc(C)n2nc(CCc3nc4c(Cl)cc(Cl)c(C)n4n3)nc2n1 [Roche-Dataset for PDE10A, Compound 1073]
36 | 329 nM | Cn1ncc(C(=O)N2CCC2)c1C(=O)Nc1ccn(CC2CC2)n1 [Roche-Dataset for PDE10A, Compound 1075]
37 | 131 nM | Cc1cc(NC(=O)c2c(C(=O)N3CCC3)cnn2C)cc(N)n1 [Roche-Dataset for PDE10A, Compound 1077]
38 | 288 nM | O=C(Nc1ccnnc1)c1nc(C2CC2)cnc1Nc1cncnc1 [Roche-Dataset for PDE10A, Compound 1083]
39 | 25 nM | CC(=O)Nc1cccc(NC(=O)c2nc(C3CC3)cnc2Nc2cncnc2)n1 [Roche-Dataset for PDE10A, Compound 1084]
40 | 146 nM | O=C(Nc1cnc(Cl)cn1)c1nc(C2CC2)ccc1Nc1cncnc1 [Roche-Dataset for PDE10A, Compound 1090]
41 | 124 nM | Cn1cc(-c2ccncc2)c(C(=O)Nc2cc(-c3ccccn3)nn2C)n1 [Roche-Dataset for PDE10A, Compound 1102]
42 | 271 nM | O=C(Nc1cccnn1)c1nc(C2CC2)cnc1Nc1cncnc1 [Roche-Dataset for PDE10A, Compound 1105]
43 | 36 nM | CCOC(=O)c1nnsc1NC(=O)c1nc(C2CC2)ccc1Nc1cncnc1 [Roche-Dataset for PDE10A, Compound 1107]
44 | 325 nM | Cn1ncc(C(=O)N2CCC2)c1C(=O)Nc1n[nH]cc1C#N [Roche-Dataset for PDE10A, Compound 1112]
45 | 32 nM | Cc1ncc(C)n2nc(/C=C/c3nc(N4CC[C@@H](C)[C@H]4C)nn3C)nc12 [Roche-Dataset for PDE10A, Compound 1115]
46 | 404 nM | CCCn1ccc(NC(=O)c2c(C(=O)N3CCC3)cnn2C)n1 [Roche-Dataset for PDE10A, Compound 1116]
47 | 402 nM | Cc1ncc(C)n2nc(/C=C/c3nc(N4CCN(C(=O)OC(C)(C)C)CC4)nn3C)nc12 [Roche-Dataset for PDE10A, Compound 1119]
